# Values joined by “and” are separate entries in the source; they are usually repeats but may differ in a detail not shown here. Equal entries are not always repeated.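 Results reflect a 48-hour exposure of cells in 96-well plates to compound at five concentrations. GI50 = concentration required for 50% inhibition of growth. Definition used: TGI = concentration required for complete inhibition of growth.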
# Legend:
# Test in all cases: DTP human tumour cell line panel, 48 h
# ACHN renal = tested on: ACHN renal
# BT-549 breast = tested on: BT-549 breast
# CCRF-CEM leukemia = tested on: CCRF-CEM leukemia
# COLO 205 colon = tested on: COLO 205 colon
# DU-145 prostate = tested on: DU-145 prostate
# IGROV1 ovarian = tested on: IGROV1 ovarian
# MDA-MB-435 = tested on: MDA-MB-435
# MOLT-4 leukemia = tested on: MOLT-4 leukemia
# SK-MEL-2 melanoma = tested on: SK-MEL-2 melanoma
# SR leukemia = tested on: SR leukemia
Structure (SMILES),TGI (ACHN renal),TGI (BT-549 breast),TGI (CCRF-CEM leukemia),TGI (COLO 205 colon),TGI (DU-145 prostate),TGI (IGROV1 ovarian),TGI (MDA-MB-435),TGI (MOLT-4 leukemia),TGI (SK-MEL-2 melanoma),TGI (SR leukemia),GI50 (ACHN renal),GI50 (BT-549 breast),GI50 (CCRF-CEM leukemia),GI50 (COLO 205 colon),GI50 (DU-145 prostate),GI50 (IGROV1 ovarian),GI50 (MOLT-4 leukemia),GI50 (SR leukemia)
CC1CN=C(c2ccc3c(c2)Cc2cc(C4=NCC(C)N4)ccc2-3)N1 (stereo not drawn),> 100 µM,> 100 µM,> 100 µM,> 100 µM,> 100 µM,> 100 µM,63.9 µM,> 100 µM,44.8 µM,> 100 µM,–,–,–,–,–,–,–,–
CCOC(=O)Cn1c(=O)c2cc(C)cc3c(Cl)nc4c(OC)c(OC)cc1c4c32,> 100 µM,> 100 µM,> 100 µM,> 100 µM,> 100 µM,> 100 µM,> 100 µM,> 100 µM,> 100 µM,> 100 µM,–,–,–,–,–,–,–,–
CCOC(=O)n1c2ccccc2c2c(O)c(OC)c3c(c21)C(=O)NC3=O,> 100 µM,> 100 µM,> 100 µM,52.2 µM,> 100 µM,> 100 µM,> 100 µM,> 100 µM,> 100 µM,87.9 µM,–,–,–,–,–,–,–,–
CC(C)=CCC[C@@H](C)c1c(O)c(O)c(C)c2nc3ccccc3nc12,5.64 µM,17.1 µM,0.8 µM,18.1 µM,10.3 µM,10.7 µM,18.3 µM,> 27.9 µM,9.26 µM,> 100 µM,–,–,–,–,–,–,–,–
Cc1cc(C)c2c(=O)n(CC(O)CN3CCN(c4ncccn4)CC3)sc2n1 (stereo not drawn),32.4 µM,32.3 µM,> 100 µM,33 µM,30.2 µM,> 100 µM,30.1 µM,22.6 µM,32.7 µM,36.5 µM,–,–,–,–,–,–,–,–
COc1cc2[nH]c(=O)[nH]c2c2c(C)c[nH]c12,> 100 µM,> 100 µM,> 100 µM,> 100 µM,> 100 µM,> 100 µM,> 100 µM,> 100 µM,> 100 µM,> 100 µM,–,–,–,–,–,–,–,–
Cc1cc2nc(N)n[n+]([O-])c2cc1C,> 100 µM,> 100 µM,> 100 µM,> 100 µM,> 100 µM,> 100 µM,> 100 µM,> 100 µM,> 100 µM,> 100 µM,–,–,–,–,–,–,–,–
CCOC(=O)C(NC(=O)Nc1ccccc1)(Nc1cccc(Cl)c1)C(F)(F)F (stereo not drawn),> 100 µM,> 100 µM,> 100 µM,> 100 µM,> 100 µM,> 100 µM,> 100 µM,> 100 µM,> 100 µM,> 100 µM,–,–,–,–,–,–,–,–
C(=C/c1ccc2nc(-c3ccc(/C=C/C=N/NC4=NCCCN4)cc3)cn2c1)/C=N/NC1=NCCCN1,> 100 µM,> 100 µM,> 100 µM,> 100 µM,41.6 µM,> 100 µM,> 100 µM,> 100 µM,> 100 µM,> 100 µM,–,–,–,–,–,–,–,–
COC(=O)c1ccc2c(c1)CCN2C(=O)c1cc2c(cc1Br)OCO2,49.3 µM and > 100 µM,45.5 µM and 5.57 µM,50 µM and > 100 µM,2.62 µM and 3.9 µM,26.9 µM and > 100 µM,50 µM and > 100 µM,0.994 µM,12.1 µM and > 100 µM,5.7 µM and 36.4 µM,50 µM and > 100 µM,6.56 µM,0.424 µM,0.742 µM,1.13 µM,3.02 µM,0.455 µM,0.896 µM,0.366 µM
Cc1cc(S(=O)(=O)Nc2nc(N)n(-c3ccccc3)n2)c(S)cc1Cl,> 100 µM,> 100 µM,> 100 µM,> 100 µM,> 100 µM,> 100 µM,> 100 µM,> 100 µM,> 100 µM,> 100 µM,–,–,–,–,–,–,–,–
CCNc1nc2ccccc2nc1NCC,> 100 µM,> 100 µM,> 100 µM,> 100 µM,> 100 µM,> 100 µM,> 100 µM,> 100 µM,> 100 µM,> 100 µM,–,–,–,–,–,–,–,–
COc1ccc(/C=C/C=C2C(=O)NC(=S)NC2=O)cc1,16.7 µM,4.62 µM,5.69 µM,13.5 µM,17.7 µM,15.4 µM,7.77 µM,10 µM,35.3 µM,4.63 µM,–,–,–,–,–,–,–,–
Nc1c(Cl)ncnc1NCC1(CO)CCC1,> 100 µM,> 100 µM,> 100 µM,> 100 µM,> 100 µM,> 100 µM,> 100 µM,> 100 µM,> 100 µM,> 100 µM,–,–,–,–,–,–,–,–
NC(=O)c1ccc(N)nc1,> 400 µM,> 400 µM,394 µM,> 400 µM,> 400 µM,> 400 µM,> 400 µM,> 400 µM,> 400 µM,> 400 µM,–,–,–,–,–,–,–,–
c1ccc2c3c(c(N4CCNCC4)nc2c1)CCCC3,27.6 µM,26.9 µM,31.4 µM,18.9 µM,28.6 µM,25 µM,24.4 µM,> 100 µM,25.2 µM,> 100 µM,–,–,–,–,–,–,–,–

Structure (SMILES),TGI (ACHN renal),TGI (BT-549 breast),TGI (CCRF-CEM leukemia),TGI (COLO 205 colon),TGI (DU-145 prostate),TGI (IGROV1 ovarian),TGI (MDA-MB-435),TGI (MOLT-4 leukemia),TGI (SK-MEL-2 melanoma),TGI (SR leukemia),GI50 (ACHN renal),GI50 (BT-549 breast),GI50 (CCRF-CEM leukemia),GI50 (COLO 205 colon),GI50 (DU-145 prostate),GI50 (IGROV1 ovarian),GI50 (MOLT-4 leukemia),GI50 (SR leukemia)
O=C1NC(N2CCOCC2)=N/C1=C\c1ccccc1,> 100 µM,> 100 µM,> 100 µM,> 100 µM,> 100 µM,> 100 µM,> 100 µM,> 100 µM,> 100 µM,> 100 µM,–,–,–,–,–,–,–,–
CCOC(=O)C(C(N)=O)c1nc2cc([N+](=O)[O-])ccc2nc1/C=C(\O)c1ccc(C)cc1 (stereo not drawn),> 52.6 µM,51.4 µM,> 100 µM,> 93.2 µM,> 100 µM,43 µM,> 100 µM,1.39 µM,48.9 µM,25.9 µM,–,–,–,–,–,–,–,–
Brc1ccc2c(c1)[C@H]1CCc3c([nH]c4ccccc34)[C@H]1N2,25 µM,34.7 µM,21.6 µM,23.6 µM,25.5 µM,15.6 µM,26.2 µM,16.8 µM,36.4 µM,33.1 µM,–,–,–,–,–,–,–,–
O=C(NCCc1ccc(F)cc1)c1cc(/C=C/c2cc(O)ccc2O)ccc1O,4.25 µM,2.97 µM,> 100 µM,13.6 µM,33.2 µM,7.66 µM,22 µM,6.99 µM,7.95 µM,> 30 µM,–,–,–,–,–,–,–,–
COC(=O)/C=C1\C(=O)N(C(C)=O)c2ccccc21,20.1 µM,27.4 µM,10.1 µM,29.3 µM,24.1 µM,22.4 µM,32.2 µM,31.4 µM,33.5 µM,> 27.5 µM,–,–,–,–,–,–,–,–
CC1CCC(O)/C=C/C(=O)OC(C)C(O)/C=C/C(=O)O1 (stereo not drawn),> 100 µM,> 100 µM,> 79.9 µM,> 100 µM,> 100 µM,> 100 µM,> 100 µM,> 100 µM,> 100 µM,> 100 µM,–,–,–,–,–,–,–,–
Nc1c2c(nc3ccccc13)-c1ccccc1CCC2,26.5 µM,44.4 µM,49.1 µM,27.1 µM,32.8 µM,37.7 µM,26.3 µM,33 µM,28.2 µM,11 µM,–,–,–,–,–,–,–,–
Cc1cc([C@H](C#N)c2nc3ccccc3s2)nc(Cl)n1,78.5 µM,35.6 µM,> 100 µM,6.49 µM,91.7 µM,23.3 µM,19.6 µM,> 100 µM,> 100 µM,> 100 µM,–,–,–,–,–,–,–,–
CO/C=C(/C(=O)OC)c1ccccc1[C@H]1C[C@@H]1c1ccc(OC)cc1,74.2 µM,46.6 µM,> 100 µM,25.8 µM,> 100 µM,45.5 µM,27.8 µM,74.5 µM,32.1 µM,45.4 µM,–,–,–,–,–,–,–,–
NCCCCN(CCCN)C(=O)OCc1ccccc1,> 100 µM,> 100 µM,> 100 µM,> 100 µM,> 100 µM,> 100 µM,> 100 µM,> 100 µM,> 100 µM,> 100 µM,–,–,–,–,–,–,–,–
NC1=CN2c3ccccc3N(CC(=O)N3CCOCC3)C2C=C1 (stereo not drawn),> 100 µM,> 100 µM,> 100 µM,> 100 µM,> 100 µM,> 100 µM,> 100 µM,> 100 µM,> 100 µM,> 100 µM,–,–,–,–,–,–,–,–
O=C1CCCc2ccc3c(c21)CC1(Cc2cc4c(cc2C1)CCCC4)C3,30 µM,72.6 µM,16 µM,31.1 µM,> 100 µM,54.6 µM,46.7 µM,37.4 µM,48.9 µM,31.5 µM,–,–,–,–,–,–,–,–
CSc1nc(NC2CC2)c2c(n1)Sc1nc3ccccc3n1N=C2,31.1 µM,> 100 µM,> 100 µM,> 100 µM,46.1 µM,> 100 µM,> 100 µM,> 100 µM,82.4 µM,> 100 µM,–,–,–,–,–,–,–,–
Nc1nc(-c2ccccc2)cc(-c2ccc(F)cc2)c1-c1ccc(Cl)cc1,> 100 µM,> 100 µM,> 100 µM,> 100 µM,> 100 µM,> 100 µM,> 100 µM,> 100 µM,> 100 µM,> 100 µM,–,–,–,–,–,–,–,–
Clc1ccc2nc3c(c(-c4ccccc4)nn3-c3ccccc3)c(-c3ccccc3)c2c1,> 100 µM,> 100 µM,> 100 µM,> 100 µM,> 100 µM,> 100 µM,> 100 µM,> 100 µM,> 100 µM,> 100 µM,–,–,–,–,–,–,–,–

# Reference: PubChem BioAssay (NCI)
